{"source": "patent US20220229065A1", "about": "“SENSORS AND METHODS FOR RAPID MICROBIAL DETECTION” (BAMBU VAULT LLC, priority 2019, published 2022)", "key": {"[1]": {"experiment": "Retention of Epolight 1117 tetrakis aminium dye in particles during emulsification and evaporation", "format": "physicochemical", "conditions": "retention in the particles during emulsion and evaporation process; surfactant as labelled", "text": "In the emulsion method of encapsulation, a surfactant is necessary to help keep the emulsion stable. While Aerosol® TR-70 (sodium bis(tridecyl) sulfosuccinate) could be used as an emulsifier to prepare polymer particles encapsulating Epolight™ 1117 tetrakis aminium dye, TR-70 only provided limited stabilization effects on the tetrakis aminium dye. […] Reducing the amount of SDS in the aqueous phase led to lower Epolight™ 1117 retention and larger particle size (Table 2)."}, "chymotrypsin": {"test_system": "chymotrypsin", "experiment": "Reaction of Formula (12) conjugate with chymotrypsin (color change, selectivity control)", "format": "biochemical", "conditions": "1.0 mg in 0.3 mL DMSO + 25 μL chymotrypsin", "protocol": "(§1) In four different vials, compound 4 (1.0 mg in each vial) was dissolved in DMSO (0.3 mL). To one vial, 25 μL of β-lactamase blend was added. To another vial 25 μL PBS was added as the negative control. To the other two vials 25 μL of papain and chymotrypsin were added separately."}, "papain": {"target": "T1, papain (Carica papaya, UniProt P00784)", "T1 sequence (P00784 134-345)": "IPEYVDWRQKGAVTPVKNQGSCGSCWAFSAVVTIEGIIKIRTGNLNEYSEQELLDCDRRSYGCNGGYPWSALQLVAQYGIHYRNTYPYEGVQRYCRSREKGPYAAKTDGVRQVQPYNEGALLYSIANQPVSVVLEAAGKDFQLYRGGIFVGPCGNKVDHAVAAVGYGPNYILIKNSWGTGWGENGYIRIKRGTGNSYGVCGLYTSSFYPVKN", "experiment": "Reaction of Formula (12) conjugate with papain (color change, selectivity control)", "format": "biochemical", "conditions": "1.0 mg in 0.3 mL DMSO + 25 μL papain", "protocol": "as §1"}, "β-lactamase blend": {"test_system": "β-lactamase blend", "experiment": "Reaction of Formula (12) conjugate with β-lactamase (color change in vial)", "format": "biochemical", "protocol": "as §1"}, "[2]": {"experiment": "Additives that stabilize the dye within the particles", "format": "physicochemical", "conditions": "antioxidant additive in polymer matrix", "text": "The loading of dyes within the particles is as high as possible without degrading the cohesion of the polymer. The additives that stabilize the dye within the particles have been studied."}, "[3]": {"conditions": "1.0 mg in 0.3 mL DMSO + 25 μL β-lactamase blend"}}}
{"smiles": "CCCCCCCCCCCCOS(=O)(=O)[O-].[Na+]", "note": "[Sodium dodecyl sulfate, sodium dodecyl sulfate]", "values": [{"measurement": "% Epolight ™ 1117 Retention", "setting": "[1]", "value": "85-90%"}]}
{"smiles": "COc1ccc(COC(=O)C2=C(CSc3ccc4c(c3)Oc3cc(SCC5=C(C(=O)OCc6ccc(OC)cc6)N6C(=O)[C@H](NC(=O)Cc7ccccc7)[C@@H]6SC5)ccc3C43OC(=O)c4ccccc43)CS[C@H]3[C@@H](NC(=O)Cc4ccccc4)C(=O)N23)cc1", "note": "[compound 4]", "values": [{"measurement": "color change after chymotrypsin addition", "setting": "chymotrypsin", "value": "almost no color change even after 30 minutes"}, {"measurement": "color change after papain addition", "setting": "papain", "value": "slightly changed color to light brown"}, {"measurement": "color change with PBS (negative control, no enzyme)", "setting": "β-lactamase blend; 1.0 mg in 0.3 mL DMSO + 25 μL PBS", "value": "did not change color at all"}, {"measurement": "color change after β-lactamase addition (onset)", "setting": "β-lactamase blend; [3]", "value": "started changing color from light yellow to brownish-red within a minute"}, {"measurement": "time to very strong color change after β-lactamase addition", "setting": "β-lactamase blend; [3]", "value": "less than 5 minutes"}]}
{"smiles": "Cc1cc(C(C)(C)C)c(O)c(C)c1Cn1c(=O)n(Cc2c(C)cc(C(C)(C)C)c(O)c2C)c(=O)n(Cc2c(C)cc(C(C)(C)C)c(O)c2C)c1=O", "note": "[Cyanox® 1790, 1,3,5-tris(4-tert-butyl-3-hydroxy-2,6-dimethylbenzyl)-1,3,5-triazine-2,4,6-(1H,3H,5H)-trione]", "values": [{"measurement": "impact on dye stability within the particles", "setting": "[2]", "value": "positive impact"}]}
{"smiles": "CCCCCCCCCCCCCOC(=O)CC(C(=O)OCCCCCCCCCCCCC)S(=O)(=O)O.[Na]", "note": "(centres unmarked) [TR-70, sodium bis(tridecyl) sulfosuccinate]", "values": [{"measurement": "% Epolight ™ 1117 Retention", "setting": "[1]", "value": 50, "unit": "%"}]}
